Experiments:
JAK2 = target: T1, JAK2 (Homo sapiens, UniProt O60674); assay: Kinobeads assay, JAK2; type: binding; conditions: mixed Molt4/Ramos lysate, read-out: Inhibition values (IC50) JAK2
T1 construct: endogenous in cells; host or cells: mixed Molt4/Ramos lysate (1:2)
Description: (§1) The compounds of the present invention as described in the previous examples were tested in a Kinobeads™ assay as described for ZAP-70 (WO-A 2007/137867). Briefly, test compounds (at various concentrations) and the affinity matrix with the immobilized aminopyrido-pyrimidine ligand 24 were added to cell lysate aliquots and allowed to bind to the proteins in the lysate sample. After the incubation time the beads with captured proteins were separated from the lysate. Bound proteins were then eluted and the presence of JAK2 and JAK3 was detected and quantified using specific antibodies in a dot blot procedure and the Odyssey infrared detection system. Dose response curves for individual kinases were generated and IC50 values calculated. Kinobeads™ assays for ZAP-70 (WO-A 2007/137867) and for kinase selectivity profiling (WO-A 2006/134056) have been previously described.
(§2) The affinity matrix was washed two times with 15 mL of 1×DP buffer containing 0.2% NP40 (IGEPAL® CA-630, Sigma, #I3021) and then resuspended in 1×DP buffer containing 0.2% NP40 (3% beads slurry).
(§3) 5×DP buffer 250 mM Tris-HCl pH 7.4, 25% Glycerol, 7.5 mM MgCl2, 750 mM NaCl, 5 mM Na3VO4; filter the 5×DP buffer through a 0.22 μm filter and store in aliquots at −80° C. The 5×DP buffer is diluted with H2O to 1×DP buffer containing 1 mM DTT and 25 mM NaF.
(§4) Stock solutions of test compounds were prepared in DMSO. In a 96 well plate 30 μL solution of diluted test compounds at 5 mM in DMSO were prepared. Starting with this solution a 1:3 dilution series (9 steps) was prepared. For control experiments (no test compound) a buffer containing 2% DMSO was used.
Molt4 cells (ATCC catalogue number CRL-1582) and Ramos cells (ATCC catalogue number CRL-1596) were grown in 1 L Spinner flasks (Integra Biosciences, #182101) in suspension in RPMI 1640 medium (Invitrogen, #21875-034) supplemented with 10% Fetal Bovine Serum (Invitrogen) at a density between 0.15×106 and 1.2×10^6 cells/mL. Cells were harvested by centrifugation, washed once with 1×PBS buffer (Invitrogen, #14190-094) and cell pellets were frozen in liquid nitrogen and subsequently stored at −80° C. Cells were homogenized in a Potter S homogenizer in lysis buffer: 50 mM Tris-HCl, 0.8% NP40, 5% glycerol, 150 mM NaCl, 1.5 mM MgCl2, 25 mM NaF, 1 mM sodium vanadate, 1 mM DTT, pH 7.5. One complete EDTA-free tablet (protease inhibitor cocktail, Roche Diagnostics, 1873580) per 25 mL buffer was added. The material was dounced 10 times using a mechanized POTTER S, transferred to 50 mL falcon tubes, incubated for 30 minutes on ice and spun down for 10 minutes at 20,000 g at 4° C. (10,000 rpm in Sorvall SLA600, precooled). The supernatant was transferred to an ultracentrifuge (UZ)-polycarbonate tube (Beckmann, 355654) and spun for 1 hour at 100,000 g at 4° C. (33.500 rpm in Ti50.2, precooled). The supernatant was transferred again to a fresh 50 mL falcon tube, the protein concentration was determined by a Bradford assay (BioRad) and samples containing 50 mg of protein per aliquot were prepared. The samples were immediately used for experiments or frozen in liquid nitrogen and stored frozen at −80° C.
(§5) Cell lysate (approximately 50 mg protein per plate) was thawed in a water bath at room temperature and then stored on ice. To the thawed cell lysate 1×DP 0.8% NP40 buffer containing protease inhibitors (1 tablet for 25 mL buffer; EDTA-free protease inhibitor cocktail; Roche Diagnostics 1873580) was added in order to reach a final protein concentration of 10 mg/mL total protein. The diluted cell lysate was stored on ice. Mixed Molt4/Ramos lysate was prepared by combining one volume of Molt4 lysate and two volumes of Ramos lysate (ratio 1:2).
To a 96 well filter plate (Multiscreen HTS, BV Filter Plates, Millipore #MSBVN1250) were added per well: 100 μL affinity matrix (3% beads slurry), 3 μL of compound solution, and 50 μL of diluted lysate. […]

Aurora B = target: T2, Aurora B (Homo sapiens, UniProt Q96GD4); assay: Kinobeads assay, Aurora B; type: binding; conditions: for IC50: lysate of pervanadate-treated Jurkat cells, read-out: Inhibition values (IC50) Aur B
T2 construct: cell lysates from Jurkat cells (ATCC TIB-152) used; endogenous in cells; host or cells: Jurkat cells (ATCC TIB-152), treated with pervanadate
Description: as §1, §2, §3, §4, §5
To a 96 well filter plate (Multiscreen HTS, BV Filter Plates, Millipore #MSBVN1250) were added per well: 100 μL affinity matrix (3% beads slurry), 3 μL of compound solution, and 50 μL of diluted lysate. Plates were sealed and incubated for 3 hours in a cold room on a plate shaker (Heidolph tiramax 1000) at 750 rpm. Afterwards the plate was washed 3 times with 230 μL washing buffer (1×DP 0.4% NP40). The filter plate was placed on top of a collection 1 plate (Greiner bio-one, PP-microplate 96 well V-shape, 65120) and the beads were then eluted with 20 μL of sample buffer (100 mM Tris, pH 7.4, 4% SDS, 0.00025% bromophenol blue, 20% glycerol, 50 mM DTT). The eluate was frozen quickly at −80° C. and stored at −20° C.
The kinases in the eluates were detected and quantified by spotting on nitrocellulose membranes and using a first antibody directed against the kinase of interest and a fluorescently labelled secondary antibody (anti-rabbit IRDye™ antibody 800 (Licor, #926-32211). The Odyssey Infrared Imaging system from LI-COR Biosciences (Lincoln, Nebr., USA) was operated according to instructions provided by the manufacturer (Schutz-Geschwendener et al, 2004. Quantitative, two-color Western blot detection with infrared fluorescence. Published May 2004 by LI-COR Biosciences, www.licor.com).
After spotting of the eluates the nitrocellulose membrane (BioTrace NT; PALL, #BTNT30R) was first blocked by incubation with Odyssey blocking buffer (LICOR, 927-40000) for 1 hour at room temperature. Blocked membranes were then incubated for 16 hours at the temperature shown in Table 5 with the first antibody diluted in Odyssey blocking buffer (LICOR #927-40000). Afterwards the membrane was washed twice for 10 minutes with PBS buffer containing 0.2% Tween 20 at room temperature. […]

T1 sequence (O60674 whole entry): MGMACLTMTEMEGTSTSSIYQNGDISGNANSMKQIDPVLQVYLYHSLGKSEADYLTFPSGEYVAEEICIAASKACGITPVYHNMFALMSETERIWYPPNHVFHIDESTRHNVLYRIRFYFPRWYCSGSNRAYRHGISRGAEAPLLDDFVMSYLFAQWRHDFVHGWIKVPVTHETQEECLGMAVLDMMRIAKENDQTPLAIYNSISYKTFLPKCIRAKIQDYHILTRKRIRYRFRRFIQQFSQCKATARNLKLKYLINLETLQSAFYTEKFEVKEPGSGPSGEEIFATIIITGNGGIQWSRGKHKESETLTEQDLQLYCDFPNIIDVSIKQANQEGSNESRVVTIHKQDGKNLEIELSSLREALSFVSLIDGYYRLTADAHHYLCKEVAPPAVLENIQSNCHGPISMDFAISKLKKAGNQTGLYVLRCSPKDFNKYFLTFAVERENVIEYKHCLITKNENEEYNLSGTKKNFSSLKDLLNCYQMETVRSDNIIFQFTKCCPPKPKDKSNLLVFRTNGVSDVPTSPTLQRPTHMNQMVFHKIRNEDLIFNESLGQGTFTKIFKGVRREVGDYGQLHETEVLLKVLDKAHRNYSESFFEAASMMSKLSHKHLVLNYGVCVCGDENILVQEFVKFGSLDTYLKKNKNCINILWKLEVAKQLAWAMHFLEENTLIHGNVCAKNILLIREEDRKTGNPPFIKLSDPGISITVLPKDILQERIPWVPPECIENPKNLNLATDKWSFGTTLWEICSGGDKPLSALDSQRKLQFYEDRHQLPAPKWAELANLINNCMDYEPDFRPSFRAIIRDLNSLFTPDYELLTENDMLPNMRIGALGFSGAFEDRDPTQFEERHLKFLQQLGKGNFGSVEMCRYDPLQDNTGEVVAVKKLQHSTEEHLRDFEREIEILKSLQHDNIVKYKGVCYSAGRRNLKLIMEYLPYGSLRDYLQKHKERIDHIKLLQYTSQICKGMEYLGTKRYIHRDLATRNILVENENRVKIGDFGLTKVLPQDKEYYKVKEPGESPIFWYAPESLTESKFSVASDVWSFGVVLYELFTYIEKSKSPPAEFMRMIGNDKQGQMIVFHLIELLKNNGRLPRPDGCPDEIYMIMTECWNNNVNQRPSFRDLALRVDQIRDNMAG
T2 sequence (Q96GD4 whole entry): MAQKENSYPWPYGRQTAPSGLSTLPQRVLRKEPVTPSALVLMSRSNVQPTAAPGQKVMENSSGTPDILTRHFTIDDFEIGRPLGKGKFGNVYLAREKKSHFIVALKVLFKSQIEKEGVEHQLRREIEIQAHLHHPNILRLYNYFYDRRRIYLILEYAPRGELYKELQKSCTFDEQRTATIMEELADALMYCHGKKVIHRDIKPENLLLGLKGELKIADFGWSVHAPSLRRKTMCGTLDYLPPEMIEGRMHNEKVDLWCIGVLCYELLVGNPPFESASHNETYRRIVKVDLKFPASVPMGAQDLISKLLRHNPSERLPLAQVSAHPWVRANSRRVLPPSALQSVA

| Structure (SMILES) | IC50 (JAK2) [nM] | JAK3/AurB Fold Selectivity (Aurora B) | IC50 (Aurora B) [nM] |
| --- | --- | --- | --- |
| C[C@@H]1COCCN1c1cccc(Cn2ncc3cnc(Nc4cnn(C)c4)nc32)n1 [Example 1, (R)—N-(1-Methyl-1H-pyrazol-4-yl)-1-((6-(3-methylmorpholino)pyridin-2-yl)methyl)-1H-pyrazolo[3,4-d]pyrimidin-6-amine] | ≥ 10000 | 10-50 Fold | 1000 to 10000 |
| Cn1cc(Nc2ncc3cnn(Cc4cccc(N5CCOCC5)c4)c3n2)cn1 [Example 2, N-(1-Methyl-1H-pyrazol-4-yl)-1-(3-morpholinobenzyl)-1H-pyrazolo[3,4-d]pyrimidin-6-amine] | 1000 to 10000 | >50 Fold | 1000 to 10000 |
| Cn1cc(Nc2ncc3cnn(Cc4cccc(N5CCOCC5)n4)c3n2)cn1 [Example 3, N-(1-Methyl-1H-pyrazol-4-yl)-1-((6-morpholinopyridin-2-yl)methyl)-1H-pyrazolo[3,4-d]pyrimidin-6-amine] | ≥ 10000 | 10-50 Fold | 100 to 1000 |
| CN(C)CCCn1cc(Nc2ncc3cnn(Cc4cccc(N5CCOCC5)c4)c3n2)cn1 [Example 4, N-(1-(3-(Dimethylamino)propyl)-1H-pyrazol-4-yl)-1-(3-morpholinobenzyl)-1H-pyrazolo[3,4-d]pyrimidin-6-amine] | 1000 to 10000 | >50 Fold | 100 to 1000 |
| OCCn1cc(Nc2ncc3cnn(Cc4cccc(N5CCOCC5)c4)c3n2)cn1 [Example 5, 2-(4-((1-(3-Morpholinobenzyl)-1H-pyrazolo[3,4-d]pyrimidin-6-yl)amino)-1H-pyrazol-1-yl)ethanol] | ≥ 10000 | >50 Fold | 100 to 1000 |
| Cn1cc(Nc2ncc3cnn(Cc4cccc(C(=O)N5CCOCC5)c4)c3n2)cn1 [Example 6, (3-((6-((1-Methyl-1H-pyrazol-4-yl)amino)-1H-pyrazolo[3,4-d]pyrimidin-1-yl)methyl)phenyl)(morpholino)methanone] | ≥ 10000 | >50 Fold | 1000 to 10000 |
| Cn1cc(Nc2ncc3cnn(Cc4cccc(CN5CCOCC5)c4)c3n2)cn1 [Example 7, N-(1-Methyl-1H-pyrazol-4-yl)-1-(3-(morpholinomethyl)benzyl)-1H-pyrazolo[3,4-d]pyrimidin-6-amine] | ≥ 10000 | 10-50 Fold | 100 to 1000 |
| Cn1cc(Nc2ncc3cnn(Cc4cccc(N5CCCCC5)c4)c3n2)cn1 [Example 8, N-(1-Methyl-1H-pyrazol-4-yl)-1-(3-(piperidin-1-yl)benzyl)-1H-pyrazolo[3,4-d]pyrimidin-6-amine] | ≥ 10000 | 10-50 Fold | 1000 to 10000 |
| Cn1cc(Nc2ncc3cnn(Cc4cccc(C5CCOCC5)c4)c3n2)cn1 [Example 9, N-(1-Methyl-1H-pyrazol-4-yl)-1-(3-(tetrahydro-2H-pyran-4-yl)benzyl)-1H-pyrazolo[3,4-d]pyrimidin-6-amine] | ≥ 10000 | 10-50 Fold | 100 to 1000 |
| CN1CCN(c2cccc(Cn3ncc4cnc(Nc5cnn(C)c5)nc43)c2)CC1 [Example 10, N-(1-Methyl-1H-pyrazol-4-yl)-1-(3-(4-methylpiperazin-1-yl)benzyl)-1H-pyrazolo[3,4-d]pyrimidin-6-amine] | ≥ 10000 | 10-50 Fold | 100 to 1000 |
| Cc1c(Cn2ncc3cnc(Nc4cnn(C)c4)nc32)cccc1N1CCOCC1 [Example 11, N-(1-Methyl-1H-pyrazol-4-yl)-1-(2-methyl-3-morpholinobenzyl)-1H-pyrazolo[3,4-d]pyrimidin-6-amine] | ≥ 10000 | 10-50 Fold | 100 to 1000 |
| CNC(=O)Cn1cc(Nc2ncc3cnn(Cc4cccc(N5CCOCC5)c4)c3n2)cn1 [Example 12, N-Methyl-2-(4-((1-(3-morpholinobenzyl)-1H-pyrazolo[3,4-d]pyrimidin-6-yl)amino)-1H-pyrazol-1-yl)acetamide] | ≥ 10000 | 10-50 Fold | 100 to 1000 |
| CCOC(=O)C1CCCN(c2cccc(Cn3ncc4cnc(Nc5cnn(C)c5)nc43)c2)C1 (stereo not drawn) [Example 13, Ethyl 1-(3-((6-((1-methyl-1H-pyrazol-4-yl)amino)-1H-pyrazolo[3,4-d]pyrimidin-1-yl)methyl)phenyl)piperidine-3-carboxylate] | ≥ 10000 | 10-50 Fold | ≥ 10000 |
| NC(=O)CCn1cc(Nc2ncc3cnn(Cc4cccc(N5CCOCC5)c4)c3n2)cn1 [Example 14, 3-(4-((1-(3-Morpholinobenzyl)-1H-pyrazolo[3,4-d]pyrimidin-6-yl)amino)-1H-pyrazol-1-yl)propanamide] | ≥ 10000 | 10-50 Fold | 100 to 1000 |
| Cn1cc(Nc2ncc3cnn(Cc4cc(N5CCOCC5)ccc4F)c3n2)cn1 [Example 15, 1-(2-Fluoro-5-morpholinobenzyl)-N-(1-methyl-1H-pyrazol-4-yl)-1H-pyrazolo[3,4-d]pyrimidin-6-amine] | ≥ 10000 | 10-50 Fold | 1000 to 10000 |
| CN(C)C(=O)CCn1cc(Nc2ncc3cnn(Cc4cccc(N5CCOCC5)c4)c3n2)cn1 [Example 16, N,N-Dimethyl-3-(4-((1-(3-morpholinobenzyl)-1H-pyrazolo[3,4-d]pyrimidin-6-yl)amino)-1H-pyrazol-1-yl)propanamide] | 1000 to 10000 | 10-50 Fold | 100 to 1000 |
| Cn1cc(Nc2ncc3cnn(Cc4c(F)c(F)cc(N5CCOCC5)c4F)c3n2)cn1 [Example 17, N-(1-Methyl-1H-pyrazol-4-yl)-1-(2,3,6-trifluoro-5-morpholinobenzyl)-1H-pyrazolo[3,4-d]pyrimidin-6-amine] | 1000 to 10000 | 10-50 Fold | 100 to 1000 |
